Like-named read-outs stand apart in the source and are kept apart here.

By IC50 is commonly meant the concentration needed to halve the response being measured. Broadly, the melting point is the temperature of the solid-liquid transition.

The test system of series [1] is T. cruzi epimastigotes, INC-5 strain. As to the kind of experiment: Growth inhibition of T. cruzi epimastigotes, INC-5 strain. Format: cell-based, Trypanosoma cruzi. The conditions noted are these: Trypanosoma cruzi, 120 h, read-out: Epi INC-5 IC50. On the procedure: (§1) Epimastigotes from T. cruzi strains NINOA and INC-5 were cultured in BHI (brain heart infusion broth, 89%) axenic medium, as reported in [26], at an initial concentration of 1 × 10^6 parasites/mL, at 28 °C, supplemented with 10% foetal bovine serum and 1% sodium penicillin-streptomycin. […] On the last day, the absorbance of the cultures was measured and related to the control. All measurements were carried out in triplicate. No toxic effect was attributable to DMSO. Since parasite growth is exponential, the data were analysed according to a first order equation, and the respective growth constant (k), corresponding to the slope, was calculated for controls and parasites treated with different drug concentrations. From these measurements, percentage growth inhibition (%GI) and half-maximal inhibitory concentration (IC50) values were calculated.

In series [2] the test system is T. cruzi epimastigotes, NINOA strain. As to the kind of experiment: Growth inhibition of T. cruzi epimastigotes, NINOA strain. The conditions noted are these: Trypanosoma cruzi, 120 h, read-out: Epi NINOA IC50. Format: cell-based. As to the method:
as §1

The subject of series [3] is T. cruzi trypomastigotes, NINOA strain. The experiment in a line: microbe, parasite or virus in culture. The conditions noted are these: Trypanosoma cruzi, read-out: Trypo NINOA LC50 (half-maximal lytic concentration). Format: cell-based. As to the method: (§2) Those compounds with the lowest IC50 values in the epimastigote studies of each strain were evaluated in trypomastigotes. For this purpose, bloodstream trypomastigotes of INC-5 and NINOA strains were used for peritoneal injection into 6−8-week-old CD1 mice. The peak of parasitemia was achieved after 4–6 weeks, at which time parasitised blood samples were obtained by cardiac puncture using sodium heparin as an anticoagulant and diluted to a concentration of 1 × 10^6 trypomastigotes/mL. 10 µL of each of the dilutions of the study compounds and Bzn, with these being placed in a 96-well plate, and 90 µL of infected blood was added, providing a final volume of 100 µL per well. The microplates were incubated at 4 °C for 24 h, and concentrations of 20 µM, 10 µM, and 5 µM of each compound were considered in these experiments. Each evaluation was performed in triplicate. Wells with untreated blood trypomastigotes were used as a negative lysis control and Bzn as a positive control. Then, the degree of lysis of trypomastigotes was determined by their reduction in number using an optical microscope according to the Brener–Pizzi method. For this purpose, 5 μL of blood was placed between a slide and a 13 × 13 coverslip. Mobile trypomastigotes were counted in 15 microscope fields at 40× magnification. Quantification of the degree of lysis for each case was expressed as a percentage considering the number of viable trypomastigotes with respect to the negative control. The half-maximal lytic concentration (LC50) was determined by linear regression. The experiments were carried out in accordance with the recommendations and approval of the local Ethics and Research Committee (Approval number: ENCB/CEI/078/2020).

Series [4] concerns T. cruzi trypomastigotes, INC-5 strain. The experiment in a line: microbe, parasite or virus in culture. As to conditions: Trypanosoma cruzi, read-out: Trypo INC-5 LC50 (half-maximal lytic concentration). Format: cell-based. As to the method: as §2
The subject of series [5] is J774 murine macrophages. The experiment in a line: Cytotoxicity on J774 macrophages (MTT). The class given is cell-based. As to the method:
Cytotoxicity assays for the compounds selected for their trypanocidal activity were performed on J774 macrophage cells using the MTT method. For this purpose, 50,000 cells/well resuspended in RPMI medium and 2% foetal bovine serum were seeded in a 96-well plate and incubated for 24 h at 37 °C. […] After 24 h of incubation, the existing culture medium was replaced in the plate with fresh culture medium along with […] each of the compound dilutions (100 to 1.25 μM) and Bzn to a final volume of 100 µL per well. This plate was then incubated in 5% CO2 for 24 h at 37 °C. The controls used were cells with medium as a positive control and cells without culture medium as a negative control. After the 24 h incubation, the morphology of the macrophages was observed under a microscope and then the culture medium was removed again and the MTT solution (5 mg/mL) was added. After 1 h incubation at 37 °C, the absorbance at 570 nm was recorded on an Elisa Epoch reader. The following formula was used to calculate the % cytotoxicity: %cytotoxicity = (100 − (mean number of cells with treatment/cells without treatment) × 100).

Setting [6] is: epimastigotes, INC-5 strain, five days, means of three independent experiments.
Setting [7] is: epimastigotes, NINOA strain, five days, means of three independent experiments.
Setting [8] is: bloodstream trypomastigotes, NINOA strain, 24 h at 4 °C.
Where [9] appears, read: bloodstream trypomastigotes, INC-5 strain, 24 h at 4 °C.
[10] abbreviates: Mus musculus, J774, 24 h, J774 macrophages, MTT, 24 h, read-out: J774 IC50.

`O=C1C=C(NCCN2CCOCC2)C(=O)c2ccccc21` [Compound 2a, 2-((2-Morpholinoethyl)amino)naphthalene-1,4-dione]: the IC50 in series [1] (setting [6]) was found to be 3.06 ± 0.01 µM; in series [2] (setting [7]) it was 1.1 ± 0.12 µM. Moreover, the LC50 in series [3] (setting [8]) and in series [4] (setting [9]) was more than 100 µM in each case.
Regarding `O=C1C(Cl)=C(NCCN2CCOCC2)C(=O)c2ccccc21` [Compound 2b, 2-Chloro-3-((2-morpholinoethyl)amino)naphthalene-1,4-dione], the IC50 in series [1] (setting [6]) came to 2.98 ± 0.2 µM; in series [2] (setting [7]) it was 1.1 ± 0.05 µM. The LC50 in series [3] (setting [8]) and in series [4] (setting [9]) was more than 100 µM each time.
As for `O=C1C(Br)=C(NCCN2CCOCC2)C(=O)c2ccccc21` [Compound 2c, 2-Bromo-3-((2-morpholinoethyl)amino)naphthalene-1,4-dione], the results for the IC50 in series [1] (setting [6]) and in series [2] (setting [7]) were 2.22 ± 0.04 µM and 1.14 ± 0.06 µM, respectively. Also, the LC50 in series [3] (setting [8]) and in series [4] (setting [9]) was more than 100 µM each time.
With `O=C1C=C(N2CCN(C3CCCC3)CC2)C(=O)c2ccccc21` [Compound 2d, 2-(4-Cyclopentylpiperazin-1-yl)naphthalene-1,4-dione], the results for the IC50 in series [1] (setting [6]) and in series [2] (setting [7]) were 5.04 ± 0.26 µM and 1.12 ± 0.04 µM, respectively. Besides, the LC50 in series [3] (setting [8]) was more than 100 µM; in series [4] (setting [9]), 87.3 ± 5.32 µM.
As for `O=C1C(Cl)=C(N2CCN(C3CCCC3)CC2)C(=O)c2ccccc21` [Compound 2e, 2-Chloro-3-(4-cyclopentylpiperazin-1-yl)naphthalene-1,4-dione], in series [2] (setting [7]), the IC50 came to 0.43 ± 0.15 µM. For the same compound, the LC50 in series [3] (setting [8]) and in series [4] (setting [9]) was more than 100 µM in each case.
Consider `O=C1C(Br)=C(N2CCN(C3CCCC3)CC2)C(=O)c2ccccc21` [Compound 2f, 2-Bromo-3-(4-cyclopentylpiperazin-1-yl)naphthalene-1,4-dione], for which the IC50 was 1.46 ± 0.03 µM in series [1] (setting [6]) and 1.15 ± 0.09 µM in series [2] (setting [7]). The values for the LC50 in series [3] (setting [8]) and in series [4] (setting [9]) were 97.9 ± 2.13 µM and more than 100 µM, respectively.
`O=C1C=C(N2CCC(N3CCOCC3)CC2)C(=O)c2ccccc21` [Compound 2g, 2-(4-Morpholinopiperidin-1-yl)naphthalene-1,4-dione] returned a melting point of 151 to 153 °C. For the same compound, the IC50 in series [1] (setting [6]) is 8.45 ± 0.35 µM. Besides, in series [2] (setting [7]), the IC50 amounted to 7.05 ± 0.95 µM.
Compound `O=C1C(Cl)=C(N2CCC(N3CCOCC3)CC2)C(=O)c2ccccc21` [Compound 2h, 2-Chloro-3-(4-morpholinopiperidin-1-yl)naphthalene-1,4-dione] displayed a melting point of 145 to 146 °C. Also, in series [1] (setting [6]), the IC50 worked out at 6.6 ± 0.08 µM. For the same compound, in series [2] (setting [7]), the IC50 amounted to 6.4 ± 0.02 µM.
For `O=C1C(Br)=C(N2CCC(N3CCOCC3)CC2)C(=O)c2ccccc21` [Compound 2i, 2-Bromo-3-(4-morpholinopiperidin-1-yl)naphthalene-1,4-dione] the same measures were 148 to 149 °C, 1.74 ± 0.02 µM and 10.1 ± 0.05 µM.
The matching figures for `O=C(NC1CCN(C2=C(Cl)C(=O)c3ccccc3C2=O)CC1)c1ccccc1Br` [Compound 7a, 2-Bromo-N-(1-(3-chloro-1,4-dioxo-1,4-dihydronaphthalen-2-yl)piperidin-4-yl)benzamide]: 197 to 198 °C, 2.46 ± 0.08 µM and 6.41 ± 0.02 µM.
Take `O=C(NC1CCN(C2=C(Cl)C(=O)c3ccccc3C2=O)CC1)c1ccc([N+](=O)[O-])cc1` [Compound 7b, N-(1-(3-chloro-1,4-dioxo-1,4-dihydronaphthalen-2-yl)piperidin-4-yl)-4-nitrobenzamide]: the IC50 amounted to 2.23 ± 0.06 µM in series [1] (setting [6]) and 0.77 ± 0.21 µM in series [2] (setting [7]). For the same compound, the LC50 was 80.3 ± 4.03 µM in series [3] (setting [8]) and more than 100 µM in series [4] (setting [9]).
For `O=C(NC1CCN(C2=C(Cl)C(=O)c3ccccc3C2=O)CC1)c1cccc(Cl)c1` [Compound 7c, 3-Chloro-N-(1-(3-chloro-1,4-dioxo-1,4-dihydronaphthalen-2-yl)piperidin-4-yl)benzamide], the IC50 in series [1] (setting [6]) is 1.14 ± 0.07 µM; in series [2] (setting [7]), 0.52 ± 0.04 µM; in series [5] (setting [10]) it was approximately 25 µM. Besides, the LC50 in series [3] (setting [8]) was 68.4 ± 6.3 µM; in series [4] (setting [9]), more than 100 µM.
For `O=C(NC1CCN(C2=C(Cl)C(=O)c3ccccc3C2=O)CC1)c1ccc(CCl)cc1` [Compound 7d, N-(1-(3-chloro-1,4-dioxo-1,4-dihydronaphthalen-2-yl)piperidin-4-yl)-4-(chloromethyl)benzamide], the IC50 in series [1] (setting [6]) is 2.3 ± 0.11 µM; in series [2] (setting [7]) it was 1.25 ± 0.06 µM. Moreover, the LC50 in series [3] (setting [8]) and in series [4] (setting [9]) was more than 100 µM in each case.
Regarding `Cc1cc(C)cc(C(=O)NC2CCN(C3=C(Cl)C(=O)c4ccccc4C3=O)CC2)c1` [Compound 7e, N-(1-(3-chloro-1,4-dioxo-1,4-dihydronaphthalen-2-yl)piperidin-4-yl)-3,5-dimethylbenzamide], the melting point was 206 to 208 °C. Besides, the IC50 in series [1] (setting [6]) stood at 5.6 ± 0.03 µM. The IC50 in series [2] (setting [7]) is 4.45 ± 0.06 µM.
With `O=C(NC1CCN(C2=C(Cl)C(=O)c3ccccc3C2=O)CC1)c1cc([N+](=O)[O-])cc([N+](=O)[O-])c1` [Compound 7f, N-(1-(3-chloro-1,4-dioxo-1,4-dihydronaphthalen-2-yl)piperidin-4-yl)-3,5-dinitrobenzamide], the IC50 in series [1] is 1.84 ± 0.06 µM; in series [2], 0.99 ± 0.01 µM; in series [5] (Mus musculus, J774, 24 h, read-out: J774 IC50, J774 macrophages, MTT, 24 h), approximately 25 µM. Moreover, the values for the LC50 in series [3] (24 h) and in series [4] (24 h) were 70.9 ± 7.31 µM and 98.6 ± 8.2 µM, respectively.
Regarding `O=C(NC1CCN(C2=C(Cl)C(=O)c3ccccc3C2=O)CC1)c1cc(F)cc(Cl)c1` [Compound 7g, 3-Chloro-N-(1-(3-chloro-1,4-dioxo-1,4-dihydronaphthalen-2-yl)piperidin-4-yl)-5-fluorobenzamide], the IC50 was 2.57 ± 0.04 µM in series [1] (setting [6]) and 3.55 ± 0.02 µM in series [2] (setting [7]). The LC50 in series [3] (setting [8]) and in series [4] (setting [9]) was more than 100 µM in each case.
With `COc1ccc(C(=O)NC2CCN(C3=C(Cl)C(=O)c4ccccc4C3=O)CC2)cc1F` [Compound 7h, N-(1-(3-chloro-1,4-dioxo-1,4-dihydronaphthalen-2-yl)piperidin-4-yl)-3-fluoro-4-methoxybenzamide], the IC50 in series [1] (setting [6]) is 1.35 ± 0.01 µM; in series [2] (setting [7]), 0.84 ± 0.11 µM; in series [5] (J774 macrophages, MTT, 24 h, read-out: J774 IC50), 22 µM; in series [5] (setting [10]) it was approximately 25 µM. Also, the figures for the LC50 in series [3] (setting [8]) and in series [4] (setting [9]) were 78.6 ± 3.91 µM and 94.7 ± 5.21 µM, respectively.
Regarding `O=C1C(Cl)=C(N2CCC(NC(=O)c3ccc(C(F)(F)F)cc3[N+](=O)[O-])CC2)C(=O)c2ccccc21` [Compound 7i, N-(1-(3-chloro-1,4-dioxo-1,4-dihydronaphthalen-2-yl)piperidin-4-yl)-2-nitro-4-(trifluoromethyl)benzamide], the figures for the IC50 in series [1] (setting [6]) and in series [2] (setting [7]) were 3.35 ± 0.05 µM and 1.09 ± 0.01 µM, respectively. In addition, the results for the LC50 in series [3] (setting [8]) and in series [4] (setting [9]) were 90.5 ± 6.58 µM and more than 100 µM, respectively.

For the origin of these results see PMC9228152, “New Amino Naphthoquinone Derivatives as Anti-Trypanosoma cruzi Agents Targeting Trypanothione Reductase” (Pharmaceutics, 2022).
